{
  "source": "paper PMC10725991",
  "about": "“Kaempferol is a novel antiviral agent against channel catfish virus infection through blocking viral attachment and penetration in vitro” (Frontiers in Veterinary Science, 2023)",
  "format_in_all_cases": "cell-based, Channel catfish virus (CCV, Ictalurid herpesvirus 1)",
  "key": {"[1]": {"test_system": "CCV in CCO cells", "experiment": "Virus attachment assay", "conditions": "kaempferol 15 μg/mL, 24 h", "protocol": "The attachment assay was performed as previously described, with slight modifications ([35]). Briefly, monolayer CCO cells seeded in 24-well plates were pre-cooled at 4°C for 30 min, and then the pre-cooled cells were treated with kaempferol (15 μg/mL) or left untreated for 2 h at 4°C. Cells were then incubated with CCV at 4°C for 1 h to allow virus attachment but prevent viral internalization. Thereafter, the compound and unattached virus were washed with ice-cold PBS and a fresh DMEM medium was added. After incubated at 28°C for 24 h, the cells were collected for subsequent experiments, including RT-qPCR and viral titer.\nMeasurement of viral titer was described previously ([5]). […]\n(§1) For RT-qPCR, the total RNA was isolated from CCV-infected cells using RnaExTM (Trizol)^a reagent (GENERAY, China), and reversed transcribed applying a HiScript III RT SuperMix with gDNA wiper (Vazyme, China) following the manufacturer’s instructions. Quantitative PCR was performed with a LightCycler 96 Real-Time PCR Detection System (Roche, USA) using ChamQ Universal SYBR qPCR Master Mix (Vazyme, China) with the following cycle conditions: 95°C for 30 s, followed by 40 cycles of 95°C for 10 s and 60°C for 30 s. […] Fold changes of the selected gene vs 18 s (internal reference) were calculated by the 2^−△△Ct method. […]"}, "[2]": {"test_system": "CCV (strain VR-665) in CCO cells", "experiment": "Antiviral activity screening assay, CCV gene expression by RT-qPCR", "conditions": "maximum safe concentration, added 1 h after CCV infection, 36 h", "protocol": "To test the anti-CCV effect of tested compounds in the preliminary screening, CCO cells were seeded in 24-well plates and cultured to reach approximately 90% confluence in each well at 28°C. Subsequently, the cells were infected with the CCV at 10^3 TCID50/ml at 28°C for 1 h. After that, the cell culture medium was replaced using an isopycnic DMEM medium containing the maximum safe concentration of indicated compounds. CCV-infected cells treated with DMSO served as a negative control, whereas CCV-infected cells treated with acyclovir (2.5 μg/mL) served as a positive control ([33]). […] According to the percentage inhibition results, we further detected the antiviral activity of kaempferol at maximum safe concentration by viral cytopathic effects (CPE) and western blot analysis.\nas §1"}, "[3]": {"test_system": "CCV-induced CPE in CCO cells", "experiment": "CPE reduction assay", "protocol": "To test the anti-CCV effect of tested compounds in the preliminary screening, CCO cells were seeded in 24-well plates and cultured to reach approximately 90% confluence in each well at 28°C. Subsequently, the cells were infected with the CCV at 10^3 TCID50/ml at 28°C for 1 h. After that, the cell culture medium was replaced using an isopycnic DMEM medium containing the maximum safe concentration of indicated compounds. CCV-infected cells treated with DMSO served as a negative control, whereas CCV-infected cells treated with acyclovir (2.5 μg/mL) served as a positive control ([33]). After 36 h treatment, cell lysates were collected to test the CCV gene expression by the RT-qPCR, and the percentage inhibition of CCV infection by individual compound was calculated. According to the percentage inhibition results, we further detected the antiviral activity of kaempferol at maximum safe concentration by viral cytopathic effects (CPE) and western blot analysis.\nFor analyzing the CPE reduction of viral infected CCO cells by kaempferol, the CCO cells were seeded in 24-well plates and cultured overnight at 28°C before infection. Then, the monolayer cells were infected with CCV at 10^3 TCID50/ml for 1 h. Subsequently, the infected cells were treated with kaempferol at different concentrations (2.5, 5, 7.5, 10, 12.5, and 15 μg/mL), respectively. […]"}},
  "data": [
    {"smiles": "O=c1c(O)c(-c2ccc(O)cc2)oc2cc(O)cc(O)c12", "note": "[Kaempferol]", "values": [
      {"measurement": "down-regulation of viral attachment (CCV ORF 39/ORF 59, RT-qPCR) vs CCV control", "setting": "[1]; 2 h at 4°C", "result": "more than 50%"},
      {"measurement": "production of intracellular virus (virus titer), attachment assay", "setting": "[1]", "result": "significantly reduced"},
      {"measurement": "inhibitory rate of CCV ORF 39 and 59 genes", "setting": "[2]", "result": 99.9, "unit": "%"},
      {"measurement": "CCV-induced CPE", "setting": "[3]; kaempferol 10–15 μg/mL, until 36 h", "result": "no obvious CPE"},
      {"measurement": "CPE induced by CCV infection", "setting": "[3]; maximum safe concentration (47.53 μg/mL), 36 h post-infection", "result": "significantly reduced CPE"}
    ]}
  ]
}
